How the values were obtained:
Type in all cases: in vivo
[1] = system: Echinochloa crus-galli; assay: Test Example 1: herbicidal effect test by treatment of rice paddy soil (immediately after seeding); conditions: 120 g/10a active ingredient, dry weight vs untreated area, 14 days after treatment
How it was run: (§1)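 Applied at 120 g a.i./10 ares as diluted emulsion dropped into flooded (~3 cm) paddy soil pots right after sowing seeds 0–1 cm deep; greenhouse, two replicates. At day 14, dry weight of treated versus untreated plants gives % herbicidal rate.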

[2] = system: Scirpus juncoides; assay: as above; conditions: 120 g/10a active ingredient, dry weight vs untreated area, 14 days after treatment
How it was run: as §1

[3] = system: broad leaf weeds (Lindernia pyxidaria and Monochoria vaginalis); assay: as above; conditions: 120 g/10a active ingredient, dry weight vs untreated area, 14 days after treatment
How it was run: as §1

[4] = system: Echinochloa crus-galli; assay: Test Example 2: herbicidal effect test by treatment during growing period in paddy rice cultivation (seven days after seeding); conditions: 120 g/10a active ingredient, assessed 14 days after treatment, dry weight vs untreated area
How it was run: (§2)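 Paddy soil in Wagner pots with compound fertilizer, puddled; 30 seeds per species sown at 0–1 cm, flooded ~3 cm, greenhouse. Seven days after seeding, water-diluted emulsions were dropped into the water at 120 g active ingredient per 10 ares. Duplicate pots; herbicidal rate from dry weight versus untreated, 14 days after treatment.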

[5] = system: Scirpus juncoides; assay: as above; conditions: 120 g/10a active ingredient, assessed 14 days after treatment, dry weight vs untreated area
How it was run: as §2

[6] = system: broad leaf weeds (Lindernia pyxidaria and Monochoria vaginalis); assay: as above; conditions: 120 g/10a active ingredient, assessed 14 days after treatment, dry weight vs untreated area
How it was run: as §2

[7] = system: Amaranthus viridis; assay: Test Example 3: herbicidal effect test by treatment of dry field farming soil (one day after seeding); conditions: 120 g/10a active ingredient, evaluated 14 days after treatment
How it was run: (§3)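 Pre-emergence soil treatment: alluvial dry-field soil, 20 seeds per species mixed into top 1 cm, emulsion diluted in water sprayed one day after seeding at 100 L per 10 ares (120 g active ingredient per 10 ares). Duplicate pots; herbicidal rate (%) from dry weight vs untreated at 14 days.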

[8] = system: Chenopodium album; assay: as above; conditions: 120 g/10a active ingredient, evaluated 14 days after treatment
How it was run: as §3

[9] = system: Echinochloa crus-galli; assay: as above; conditions: 120 g/10a active ingredient, evaluated 14 days after treatment
How it was run: as §3

[10] = system: southern crabgrass; assay: as above; conditions: 120 g/10a active ingredient, evaluated 14 days after treatment
How it was run: as §3

[11] = system: Amaranthus viridis; assay: Test Example 4: herbicidal effect test by treatment of leave and stem in dry field farming (seven days after seeding); conditions: 120 g/10a active ingredient; emulsion sprayed seven days after seeding; evaluated 14 days after treatment
How it was run: (§4)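 Weeds were seeded at 20 seeds per species into the top 1 cm of alluvial upland soil in pots, then sprayed 7 days after seeding with water-diluted emulsifiable concentrate at 100 L/10 a, giving 120 g active ingredient/10 a. Duplicate pots; herbicidal rate (%) was 14 days post-treatment, from dry weight versus untreated.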

[12] = system: Chenopodium album; assay: as above; conditions: 120 g/10a active ingredient; emulsion sprayed seven days after seeding; evaluated 14 days after treatment
How it was run: as §4

[13] = system: Echinochloa crus-galli; assay: as above; conditions: 120 g/10a active ingredient; emulsion sprayed seven days after seeding; evaluated 14 days after treatment
How it was run: as §4

[14] = system: southern crabgrass; assay: as above; conditions: 120 g/10a active ingredient; emulsion sprayed seven days after seeding; evaluated 14 days after treatment
How it was run: as §4

Cc1c(Cc2ccccc2N(C(=O)C(C)C)S(=O)(=O)C(F)(F)F)c(=O)on1C(C)(C)C [Compound 1-329]
90%: Herbicidal rate (%) Echinochloa crus-galli [1] | Herbicidal rate (%) Scirpus juncoides [2] | Herbicidal rate (%) Lindernia pyxidaria [3] | Herbicidal rate (%) Monochoria vaginalis [3] | Herbicidal rate (%) Echinochloa crus-galli [4] | Herbicidal rate (%) Scirpus juncoides [5] | Herbicidal rate (%) Lindernia pyxidaria [6] | Herbicidal rate (%) Monochoria vaginalis [6] | herbicidal rate, Amaranthus viridis [7] | herbicidal rate, Chenopodium album [8] | herbicidal rate, Echinochloa crus-galli [9] | herbicidal rate, southern crabgrass [10] | herbicidal effect (herbicidal rate), Echinochloa crus-galli [13] | herbicidal effect (herbicidal rate), southern crabgrass [14]
40%: herbicidal effect (herbicidal rate), Amaranthus viridis [11] | herbicidal effect (herbicidal rate), Chenopodium album [12]

C=CC(C)n1oc(=O)c(Cc2ccccc2NS(=O)(=O)C(F)(F)F)c1C (centres unmarked) [Compound 1-136]
90%: Herbicidal rate (%) Scirpus juncoides [2] | Herbicidal rate (%) Echinochloa crus-galli [4] | Herbicidal rate (%) Scirpus juncoides [5]
70%: Herbicidal rate (%) Monochoria vaginalis [3] | Herbicidal rate (%) Monochoria vaginalis [6] | herbicidal effect (herbicidal rate), Echinochloa crus-galli [13] | herbicidal effect (herbicidal rate), southern crabgrass [14]
100%: Herbicidal rate (%) Echinochloa crus-galli [1] | herbicidal rate, Amaranthus viridis [7] | herbicidal rate, Echinochloa crus-galli [9] | herbicidal rate, southern crabgrass [10]
80%: Herbicidal rate (%) Lindernia pyxidaria [3]
60%: Herbicidal rate (%) Lindernia pyxidaria [6] | herbicidal rate, Chenopodium album [8] | herbicidal effect (herbicidal rate), Amaranthus viridis [11] | herbicidal effect (herbicidal rate), Chenopodium album [12]

Cc1c(Cc2ccccc2N(C(=O)OCc2ccccc2)S(=O)(=O)C(F)(F)F)c(=O)on1CC(C)C [Compound 1-785]
40%: herbicidal effect (herbicidal rate), Amaranthus viridis [11] | herbicidal effect (herbicidal rate), Chenopodium album [12]
90%: Herbicidal rate (%) Echinochloa crus-galli [1] | Herbicidal rate (%) Scirpus juncoides [2] | Herbicidal rate (%) Lindernia pyxidaria [3] | Herbicidal rate (%) Monochoria vaginalis [3] | Herbicidal rate (%) Echinochloa crus-galli [4] | Herbicidal rate (%) Scirpus juncoides [5] | Herbicidal rate (%) Lindernia pyxidaria [6] | Herbicidal rate (%) Monochoria vaginalis [6] | herbicidal rate, Amaranthus viridis [7] | herbicidal rate, Chenopodium album [8] | herbicidal rate, Echinochloa crus-galli [9] | herbicidal rate, southern crabgrass [10] | herbicidal effect (herbicidal rate), Echinochloa crus-galli [13] | herbicidal effect (herbicidal rate), southern crabgrass [14]

Cc1c(Cc2ccccc2N(S(=O)(=O)C(F)(F)F)S(=O)(=O)C(F)(F)F)c(=O)on1CCC(C)(C)C [Compound 1-975]
90%: Herbicidal rate (%) Scirpus juncoides [2] | Herbicidal rate (%) Lindernia pyxidaria [3] | herbicidal rate, Amaranthus viridis [7] | herbicidal rate, Chenopodium album [8] | herbicidal rate, southern crabgrass [10]
70%: Herbicidal rate (%) Lindernia pyxidaria [6]
40%: herbicidal effect (herbicidal rate), Chenopodium album [12]
50%: herbicidal effect (herbicidal rate), Amaranthus viridis [11] | herbicidal effect (herbicidal rate), Echinochloa crus-galli [13]
100%: Herbicidal rate (%) Echinochloa crus-galli [1] | Herbicidal rate (%) Echinochloa crus-galli [4]
0%: herbicidal effect (herbicidal rate), southern crabgrass [14]
80%: Herbicidal rate (%) Monochoria vaginalis [3] | Herbicidal rate (%) Scirpus juncoides [5] | Herbicidal rate (%) Monochoria vaginalis [6] | herbicidal rate, Echinochloa crus-galli [9]

CCOC(=O)N(c1ccccc1Cc1c(C)n(CC(C)(C)C)oc1=O)S(=O)(=O)C(F)(F)F [Compound 1-609]
90%: Herbicidal rate (%) Echinochloa crus-galli [1] | Herbicidal rate (%) Scirpus juncoides [2] | Herbicidal rate (%) Lindernia pyxidaria [3] | Herbicidal rate (%) Monochoria vaginalis [3] | Herbicidal rate (%) Echinochloa crus-galli [4] | Herbicidal rate (%) Scirpus juncoides [5] | Herbicidal rate (%) Lindernia pyxidaria [6] | Herbicidal rate (%) Monochoria vaginalis [6] | herbicidal rate, Amaranthus viridis [7] | herbicidal rate, Chenopodium album [8] | herbicidal rate, Echinochloa crus-galli [9] | herbicidal rate, southern crabgrass [10] | herbicidal effect (herbicidal rate), Echinochloa crus-galli [13] | herbicidal effect (herbicidal rate), southern crabgrass [14]
40%: herbicidal effect (herbicidal rate), Amaranthus viridis [11] | herbicidal effect (herbicidal rate), Chenopodium album [12]

COCC(C)n1oc(=O)c(Cc2ccccc2N(C(=O)OC)S(=O)(=O)C(F)(F)F)c1C (centres unmarked) [Compound 1-587]
90%: Herbicidal rate (%) Echinochloa crus-galli [1] | Herbicidal rate (%) Scirpus juncoides [2] | Herbicidal rate (%) Lindernia pyxidaria [3] | Herbicidal rate (%) Monochoria vaginalis [3] | Herbicidal rate (%) Echinochloa crus-galli [4] | Herbicidal rate (%) Scirpus juncoides [5] | Herbicidal rate (%) Lindernia pyxidaria [6] | Herbicidal rate (%) Monochoria vaginalis [6] | herbicidal rate, Amaranthus viridis [7] | herbicidal rate, Chenopodium album [8] | herbicidal rate, Echinochloa crus-galli [9] | herbicidal rate, southern crabgrass [10] | herbicidal effect (herbicidal rate), Echinochloa crus-galli [13] | herbicidal effect (herbicidal rate), southern crabgrass [14]
40%: herbicidal effect (herbicidal rate), Amaranthus viridis [11] | herbicidal effect (herbicidal rate), Chenopodium album [12]

CCC(C)n1oc(=O)c(Cc2ccccc2N(C(=O)C(C)C)S(=O)(=O)C(F)(F)F)c1C (centres unmarked) [Compound 1-330]
90%: Herbicidal rate (%) Echinochloa crus-galli [1] | Herbicidal rate (%) Scirpus juncoides [2] | Herbicidal rate (%) Lindernia pyxidaria [3] | Herbicidal rate (%) Monochoria vaginalis [3] | Herbicidal rate (%) Echinochloa crus-galli [4] | Herbicidal rate (%) Scirpus juncoides [5] | Herbicidal rate (%) Lindernia pyxidaria [6] | Herbicidal rate (%) Monochoria vaginalis [6] | herbicidal rate, Amaranthus viridis [7] | herbicidal rate, Chenopodium album [8] | herbicidal rate, Echinochloa crus-galli [9] | herbicidal rate, southern crabgrass [10] | herbicidal effect (herbicidal rate), Echinochloa crus-galli [13] | herbicidal effect (herbicidal rate), southern crabgrass [14]
40%: herbicidal effect (herbicidal rate), Amaranthus viridis [11] | herbicidal effect (herbicidal rate), Chenopodium album [12]

CCCCC(c1ccccc1)n1oc(=O)c(Cc2ccccc2N(S(=O)(=O)C(F)(F)F)S(=O)(=O)C(F)(F)F)c1C (centres unmarked) [Compound 1-1041]
40%: herbicidal effect (herbicidal rate), Chenopodium album [12] | herbicidal effect (herbicidal rate), Echinochloa crus-galli [13]
100%: Herbicidal rate (%) Echinochloa crus-galli [1]
90%: Herbicidal rate (%) Scirpus juncoides [2] | Herbicidal rate (%) Lindernia pyxidaria [3] | Herbicidal rate (%) Monochoria vaginalis [3] | Herbicidal rate (%) Echinochloa crus-galli [4]
50%: herbicidal rate, Amaranthus viridis [7] | herbicidal rate, Chenopodium album [8] | herbicidal effect (herbicidal rate), southern crabgrass [14]
70%: Herbicidal rate (%) Scirpus juncoides [5] | Herbicidal rate (%) Lindernia pyxidaria [6] | Herbicidal rate (%) Monochoria vaginalis [6] | herbicidal rate, Echinochloa crus-galli [9]
60%: herbicidal effect (herbicidal rate), Amaranthus viridis [11]
80%: herbicidal rate, southern crabgrass [10]
